Experimental data from ChEMBL document CHEMBL1146853, “Proton dissociation is important to understanding structure-activity relationships of gallic acid antioxidants” (Bioorg Med Chem Lett, 2006).

Assays:
[1] = test system: Radical scavenging activity; test: DPPH radical scavenging activity in liposome; type: functional
[2] = test system: Radical scavenging activity; test: DPPH radical scavenging activity in ethanol solution; type: functional

| Compound | IC50 ([1]; read-out: IC50) [µM] | IC50 ([2]; read-out: IC50) [µM] | IC50 [1] | IC50 [2] |
| --- | --- | --- | --- | --- |
| COC(=O)c1cc(O)c(O)c(O)c1 [GALLIC ACID METHYL ESTER] | 8.4 | 7.2 |  |  |
| COc1cc(C(=O)O)cc(OC)c1O [SYRINGIC ACID] | 7.4 | 7.3 |  |  |
| COc1cc(C(=O)O)cc(O)c1OC |  |  | Not Active | Not Active |
| O=C(O)c1cc(O)c(O)c(O)c1 [GALLIC ACID] | 7.3 | 6 |  |  |
| COc1cc(C(=O)O)cc(OC)c1OC [3,4,5-TRIMETHOXYBENZOIC ACID] |  |  | Not Active | Not Active |
